# System: mice
# Experiment: Tail suspension test
# Assay type: in vivo, mouse
# Experimental: Antidepressant activity of 11-piperazin-1-yldibenzo[b,f][1,4]thiazepine was assessed in mice according to the tail suspension test. As shown in the results below, 11-piperazin-1-yldibenzo[b,f][1,4]thiazepine has antidepressant activity in mice.
# In a first experiment, mice (n=10/group) were treated with vehicle, 2.0, 5.0, or 10.0 mg/kg of 11-piperazin-1-yldibenzo[b,f][1,4]thiazepine s.c. 15 minutes prior to the test session. Mice were suspended from their tails for 7 minutes. During the last 5 minutes of the test, the duration of immobility was recorded. In a second experiment, mice (n=10/group) were treated with vehicle, 30 mg/kg 11-piperazin-1-yldibenzo[b,f][1,4]thiazepine, or 30 mg/kg fluoxetine p.o. 60 minutes prior to the test session. Mice were suspended from their tails for 7 minutes. During the last 5 minutes of the test, the duration of immobility was recorded.
structure (smiles),measurement,setting,value
"c1ccc2c(c1)N=C(N1CCNCC1)c1ccccc1S2 [11-piperazin-1-yldibenzo[b,f][1,4]thiazepine]","reduction of immobility, fraction of that of the vehicle control group",10.0 mg/kg s.c.,more than ½
same,duration of immobility compared with controls,"10.0 mg/kg s.c., p<0.01",significantly reduced immobility
same,"reduction of immobility, fraction of that of the vehicle control group","30 mg/kg p.o., 60 minutes prior",more than ½
same,duration of immobility compared to the vehicle control group,"30 mg/kg p.o., 60 minutes prior, p<0.01",significantly reduced immobility
same,duration of immobility,"all doses tested: 2.0, 5.0, 10.0 mg/kg s.c., 15 minutes prior",reduced immobility

# — patent US20090093460A1, “Compositions” (AstraZeneca AB, priority 2003, published 2009)
